Patent US20120220564A1, “SELECTIVE CALCIUM CHANNEL MODULATORS” (Zalicus Pharmaceuticals Ltd., priority 2009, published 2012)

How the values were obtained:
[1] = biological target: hERG K+ channel (Homo sapiens, UniProt Q12809); assay: hERG activity
Description: (§1) In addition to being able to modulate a particular calcium channel (e.g., CaV 3.1, CaV 3.2, or CaV 3.3), it may be desirable that the compound has very low activity with respect to the hERG K^+ channel, which is expressed in the heart: compounds that block this channel with high potency may cause reactions which are fatal. See, e.g., Bowlby et al., “hERG (KCNH2 or KV11.1 K^+ Channels: Screening for Cardiac Arrhythmia Risk,” Curr. Drug Metab. 9(9):965-70 (2008)). […] Such compounds may be particularly useful in the methods described herein.

[2] = biological target: CYP3A4 (Homo sapiens, UniProt P08684); assay: cytochrome inhibition; format: in vitro ADME; conditions: read-out: inhibition of cytochrome 3A4
Description: as §1

[3] = biological target: CYP2C9 (Homo sapiens, UniProt P11712); assay: cytochrome inhibition; format: in vitro ADME; conditions: read-out: inhibition of cytochrome 2C9
Description: as §1

[4] = biological target: CYP2D6 (Homo sapiens, UniProt P10635); assay: cytochrome inhibition; format: in vitro ADME; conditions: read-out: inhibition of cytochrome 2D6
CYP2D6, sequence (P10635 whole entry): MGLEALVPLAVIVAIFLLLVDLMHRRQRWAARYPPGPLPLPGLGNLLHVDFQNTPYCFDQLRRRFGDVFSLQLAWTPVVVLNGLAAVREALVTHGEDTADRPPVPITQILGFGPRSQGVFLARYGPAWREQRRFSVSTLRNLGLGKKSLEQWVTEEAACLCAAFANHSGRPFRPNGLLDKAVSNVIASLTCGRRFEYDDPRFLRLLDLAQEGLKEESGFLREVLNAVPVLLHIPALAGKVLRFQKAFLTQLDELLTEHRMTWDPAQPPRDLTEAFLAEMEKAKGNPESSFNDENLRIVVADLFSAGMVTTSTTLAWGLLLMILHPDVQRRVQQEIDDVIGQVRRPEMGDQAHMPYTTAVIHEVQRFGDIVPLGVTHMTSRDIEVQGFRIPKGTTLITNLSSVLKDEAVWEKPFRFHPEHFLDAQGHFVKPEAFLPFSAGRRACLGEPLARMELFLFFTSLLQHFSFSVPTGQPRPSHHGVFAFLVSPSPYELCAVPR

CYP3A4, sequence (P08684 whole entry): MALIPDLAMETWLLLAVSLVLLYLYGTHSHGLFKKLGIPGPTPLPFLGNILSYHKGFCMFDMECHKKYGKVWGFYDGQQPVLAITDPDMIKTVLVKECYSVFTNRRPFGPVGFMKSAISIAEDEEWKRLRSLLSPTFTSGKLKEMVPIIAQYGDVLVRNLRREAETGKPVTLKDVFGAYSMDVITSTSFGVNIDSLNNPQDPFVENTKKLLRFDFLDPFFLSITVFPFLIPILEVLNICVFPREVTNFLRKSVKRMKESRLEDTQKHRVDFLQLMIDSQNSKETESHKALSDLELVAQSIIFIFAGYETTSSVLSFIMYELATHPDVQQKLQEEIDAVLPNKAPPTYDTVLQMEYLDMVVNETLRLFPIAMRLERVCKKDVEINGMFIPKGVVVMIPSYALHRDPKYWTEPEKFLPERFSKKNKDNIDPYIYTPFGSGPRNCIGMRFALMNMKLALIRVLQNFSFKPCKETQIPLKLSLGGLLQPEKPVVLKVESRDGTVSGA
hERG K+ channel, sequence (Q12809 whole entry): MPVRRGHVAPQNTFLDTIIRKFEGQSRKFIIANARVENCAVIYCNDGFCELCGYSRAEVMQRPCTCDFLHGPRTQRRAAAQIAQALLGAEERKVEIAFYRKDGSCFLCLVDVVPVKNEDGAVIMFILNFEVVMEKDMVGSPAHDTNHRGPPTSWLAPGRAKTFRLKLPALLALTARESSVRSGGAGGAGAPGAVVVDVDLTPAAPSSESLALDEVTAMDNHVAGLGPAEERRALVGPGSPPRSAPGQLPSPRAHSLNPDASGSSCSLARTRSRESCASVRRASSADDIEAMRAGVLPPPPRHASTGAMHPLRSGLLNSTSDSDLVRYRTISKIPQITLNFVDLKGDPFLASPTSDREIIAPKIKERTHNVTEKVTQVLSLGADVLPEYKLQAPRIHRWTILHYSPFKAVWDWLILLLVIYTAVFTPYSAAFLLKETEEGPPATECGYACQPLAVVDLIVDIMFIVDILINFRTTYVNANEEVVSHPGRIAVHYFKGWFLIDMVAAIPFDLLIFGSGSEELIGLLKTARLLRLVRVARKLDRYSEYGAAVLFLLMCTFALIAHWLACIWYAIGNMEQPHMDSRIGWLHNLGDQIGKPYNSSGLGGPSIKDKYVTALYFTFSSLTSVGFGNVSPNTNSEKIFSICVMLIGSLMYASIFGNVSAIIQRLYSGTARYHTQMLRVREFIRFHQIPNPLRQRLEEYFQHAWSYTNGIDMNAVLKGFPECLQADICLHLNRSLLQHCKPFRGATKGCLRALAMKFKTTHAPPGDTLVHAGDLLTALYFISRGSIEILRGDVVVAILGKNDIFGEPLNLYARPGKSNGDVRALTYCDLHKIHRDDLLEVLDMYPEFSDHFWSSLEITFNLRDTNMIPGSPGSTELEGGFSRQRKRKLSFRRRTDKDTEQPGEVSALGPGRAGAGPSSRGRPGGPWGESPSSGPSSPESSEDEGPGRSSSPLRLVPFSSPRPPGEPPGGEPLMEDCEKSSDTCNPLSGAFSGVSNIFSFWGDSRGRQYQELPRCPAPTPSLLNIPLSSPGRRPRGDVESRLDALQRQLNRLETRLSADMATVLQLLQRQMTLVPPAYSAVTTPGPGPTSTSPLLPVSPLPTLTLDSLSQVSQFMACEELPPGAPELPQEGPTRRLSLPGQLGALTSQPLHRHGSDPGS
CYP2C9, sequence (P11712 whole entry): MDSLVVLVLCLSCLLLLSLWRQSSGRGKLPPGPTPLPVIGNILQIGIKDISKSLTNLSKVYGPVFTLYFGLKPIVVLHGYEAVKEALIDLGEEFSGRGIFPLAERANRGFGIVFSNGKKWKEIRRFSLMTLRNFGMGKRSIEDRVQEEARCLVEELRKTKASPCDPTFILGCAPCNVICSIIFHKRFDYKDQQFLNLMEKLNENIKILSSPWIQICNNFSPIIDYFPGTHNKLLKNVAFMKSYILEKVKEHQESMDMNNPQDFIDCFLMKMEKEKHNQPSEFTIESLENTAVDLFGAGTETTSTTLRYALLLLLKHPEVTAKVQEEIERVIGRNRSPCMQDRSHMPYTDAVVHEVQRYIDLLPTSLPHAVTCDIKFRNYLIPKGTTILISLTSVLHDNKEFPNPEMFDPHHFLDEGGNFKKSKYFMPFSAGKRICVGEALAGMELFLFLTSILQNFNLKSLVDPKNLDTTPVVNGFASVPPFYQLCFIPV

N[C@@H]1CCCC[C@H]1C(=O)N1CCC(CC(=O)Nc2cc(C(F)(F)F)cc(C(F)(F)F)c2)CC1 (racemic) [Compound 3, trans-2-(1-(2-aminocyclohexanecarbonyl)piperidin-4-yl)-N-(3,5-bis(trifluoromethyl)phenyl)acetamide]
hERG activity [1]: negligible
inhibition at 10 micromolar [2]: < 10%
inhibition at 10 micromolar [3]: < 10%
inhibition at 10 micromolar [4]: < 10%
